Results reported in article PMC10123126, “Insights into translocation mechanism and ribosome evolution from cryo-EM structures of translocation intermediates of Giardia intestinalis” (Nucleic Acids Research, 2023).

Target: T1, eEF2 (Giardia duodenalis, UniProt A8BU59)
T1 construct: gene GL50803_0017570; GDP in G domain (domain I)
Assay: cryo-EM structure
Type: binding

T1 sequence (A8BU59 1-898): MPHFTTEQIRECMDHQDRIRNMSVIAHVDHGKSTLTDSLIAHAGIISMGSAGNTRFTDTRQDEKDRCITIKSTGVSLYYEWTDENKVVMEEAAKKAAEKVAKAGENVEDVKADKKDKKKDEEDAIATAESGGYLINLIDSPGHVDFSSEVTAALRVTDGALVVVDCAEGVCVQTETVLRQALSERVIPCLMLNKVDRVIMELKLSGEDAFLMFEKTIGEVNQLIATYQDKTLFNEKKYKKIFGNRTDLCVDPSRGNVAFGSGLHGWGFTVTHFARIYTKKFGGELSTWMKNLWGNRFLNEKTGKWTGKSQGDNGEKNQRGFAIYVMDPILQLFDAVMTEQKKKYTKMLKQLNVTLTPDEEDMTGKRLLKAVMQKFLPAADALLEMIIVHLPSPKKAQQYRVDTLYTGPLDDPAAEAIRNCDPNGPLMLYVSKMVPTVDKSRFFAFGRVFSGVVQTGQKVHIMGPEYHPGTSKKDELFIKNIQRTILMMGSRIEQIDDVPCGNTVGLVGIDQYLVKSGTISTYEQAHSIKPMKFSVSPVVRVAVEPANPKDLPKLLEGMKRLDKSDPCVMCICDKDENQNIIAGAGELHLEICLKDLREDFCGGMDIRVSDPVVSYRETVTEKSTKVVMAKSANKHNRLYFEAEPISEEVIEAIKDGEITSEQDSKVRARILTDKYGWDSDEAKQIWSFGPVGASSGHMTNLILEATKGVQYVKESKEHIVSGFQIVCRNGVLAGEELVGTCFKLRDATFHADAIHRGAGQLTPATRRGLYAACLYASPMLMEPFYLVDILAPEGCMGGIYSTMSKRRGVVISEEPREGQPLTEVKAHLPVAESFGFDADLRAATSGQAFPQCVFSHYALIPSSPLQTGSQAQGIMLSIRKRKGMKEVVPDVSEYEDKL

`Nc1nc2c(ncn2[C@@H]2O[C@H](COP(=O)(O)OP(=O)(O)O)[C@@H](O)[C@H]2O)c(=O)[nH]1` [GDP] was tested, and the cryo-EM structure (ribosome-bound eEF2, state B (chimeric hybrid), G domain, P-loop (G1), G4 and G5 motifs, naturally bound, no inhibitor or analog added) was “We found a clear density of GDP in the G domain of eEF2”.

For `O=P(O)(O)O` [Pi], the cryo-EM structure (ribosome-bound eEF2·GDP, state B, leaving phosphate of GTP hydrolysis, held by H143 of switch-II) was “A distinct density of the ‘leaving Pi’ group can be seen”.
